The source of these data is patent publication US20250042914A1, “PIKFYVE KINASE INHIBITOR” (HANMI PHARM. CO., LTD., priority 2021, published 2025).

Counter-ions that a name gives are not always drawn.

Sequence of human-derived PIKfyve kinase (Q9Y2I7 whole entry): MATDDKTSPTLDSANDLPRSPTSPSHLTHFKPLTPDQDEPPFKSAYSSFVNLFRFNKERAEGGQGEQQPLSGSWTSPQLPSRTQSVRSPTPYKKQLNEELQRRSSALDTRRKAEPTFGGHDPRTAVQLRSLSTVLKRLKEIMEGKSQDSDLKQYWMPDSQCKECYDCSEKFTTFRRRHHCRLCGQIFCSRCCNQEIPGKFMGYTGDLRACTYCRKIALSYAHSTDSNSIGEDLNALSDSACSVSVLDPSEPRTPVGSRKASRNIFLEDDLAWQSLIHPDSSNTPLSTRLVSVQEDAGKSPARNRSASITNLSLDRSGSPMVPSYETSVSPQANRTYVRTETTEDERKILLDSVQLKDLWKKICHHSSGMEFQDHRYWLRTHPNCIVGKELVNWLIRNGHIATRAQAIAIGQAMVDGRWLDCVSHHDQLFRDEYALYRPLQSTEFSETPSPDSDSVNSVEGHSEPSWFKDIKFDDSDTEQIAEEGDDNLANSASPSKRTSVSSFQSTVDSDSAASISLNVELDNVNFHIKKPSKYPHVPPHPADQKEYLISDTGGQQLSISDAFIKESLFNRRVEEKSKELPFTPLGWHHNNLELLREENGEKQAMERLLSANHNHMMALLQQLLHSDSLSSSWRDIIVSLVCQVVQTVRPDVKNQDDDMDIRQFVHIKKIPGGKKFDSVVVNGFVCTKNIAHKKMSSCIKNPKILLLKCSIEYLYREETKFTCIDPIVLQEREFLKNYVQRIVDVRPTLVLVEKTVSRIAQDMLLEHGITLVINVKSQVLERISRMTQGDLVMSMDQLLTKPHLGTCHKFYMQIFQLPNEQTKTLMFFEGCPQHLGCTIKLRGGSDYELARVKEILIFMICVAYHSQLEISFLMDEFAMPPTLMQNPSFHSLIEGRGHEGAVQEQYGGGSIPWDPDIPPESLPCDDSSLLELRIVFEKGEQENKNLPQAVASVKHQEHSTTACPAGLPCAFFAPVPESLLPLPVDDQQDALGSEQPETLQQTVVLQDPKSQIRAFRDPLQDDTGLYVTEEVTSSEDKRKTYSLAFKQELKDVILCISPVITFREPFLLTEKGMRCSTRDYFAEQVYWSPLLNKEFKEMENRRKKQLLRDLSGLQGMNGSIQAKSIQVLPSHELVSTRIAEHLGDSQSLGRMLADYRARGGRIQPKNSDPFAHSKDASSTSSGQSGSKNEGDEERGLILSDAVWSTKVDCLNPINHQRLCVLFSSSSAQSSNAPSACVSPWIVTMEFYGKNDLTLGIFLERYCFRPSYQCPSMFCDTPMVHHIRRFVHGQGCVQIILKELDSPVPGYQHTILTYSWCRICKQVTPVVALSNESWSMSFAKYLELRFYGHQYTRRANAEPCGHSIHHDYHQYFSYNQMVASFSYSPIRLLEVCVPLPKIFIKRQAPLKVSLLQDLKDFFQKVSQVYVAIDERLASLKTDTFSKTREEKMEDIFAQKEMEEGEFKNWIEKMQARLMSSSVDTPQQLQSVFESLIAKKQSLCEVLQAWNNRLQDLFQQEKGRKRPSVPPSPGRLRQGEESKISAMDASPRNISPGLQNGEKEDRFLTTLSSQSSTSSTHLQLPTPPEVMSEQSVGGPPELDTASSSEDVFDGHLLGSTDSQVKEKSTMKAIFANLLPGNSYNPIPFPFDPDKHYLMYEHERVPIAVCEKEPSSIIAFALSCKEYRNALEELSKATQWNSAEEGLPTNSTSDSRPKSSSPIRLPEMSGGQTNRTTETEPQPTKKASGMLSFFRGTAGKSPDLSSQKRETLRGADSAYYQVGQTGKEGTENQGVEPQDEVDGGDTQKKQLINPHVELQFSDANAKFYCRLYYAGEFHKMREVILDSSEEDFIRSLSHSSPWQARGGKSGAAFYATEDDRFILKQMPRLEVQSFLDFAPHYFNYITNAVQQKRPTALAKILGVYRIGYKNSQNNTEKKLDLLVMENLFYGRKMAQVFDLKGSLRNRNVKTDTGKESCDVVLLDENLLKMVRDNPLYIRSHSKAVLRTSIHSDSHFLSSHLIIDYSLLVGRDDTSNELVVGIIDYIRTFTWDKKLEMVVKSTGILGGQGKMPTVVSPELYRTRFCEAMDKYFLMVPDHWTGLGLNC

The assay addresses human-derived PIKfyve kinase (Homo sapiens (Human), UniProt Q9Y2I7). The assay is described as follows: PIKfyve enzyme inhibition assay (ADP-Glo). In kind it is biochemical. Particulars: PIKfyve enzyme inhibitory assay; PI(3)P 10 μm, ATP 2 μm, 60 minutes. Here is the method: For each of the compounds prepared in Examples 1 to 33, the PIKfyve enzyme inhibitory activity was measured by using a QS S Assis PIKFYVE (PIP5K3)_ADP-Glo™ Kit (Cat. #11-118) made by Carna Bioscience. 5 μL of each of human-derived PIKfyve kinase, PI(3)P, and ATP solution was added to a 384-well plate (such that final concentrations of each solution are 375 ng/ml, 10 μm, and 2 μm, respectively). The compound to be evaluated underwent serial dilution according to the set concentrations, and 5 μL of the diluted solution was added to each well and caused a reaction for 60 minutes. MgCl2 was mixed in ADP-Glo™ solution (Promega, Cat. #V9102) to a final concentration of 100 mM, and 20 μL of the mixed solution was added to each well and caused a reaction at room temperature for 40 minutes. 40 μL of kinase detection solution was added to each well and caused a reaction at room temperature for 40 minutes. Then, the luminescence signals were detected by using a Synergy™ NEO microplate analyzer. Well to which no enzyme was added were used as a negative control, whereas wells to which no drug was added were used as a positive control, so as to calculate the enzyme inhibitory ability (%) of drugs. The 50% inhibitor concentration (IC50) values were calculated by using a GraphPad Prism software.
In Table 1, when the case where the IC50 value was 50 nM or less was indicated as A, the case where the IC50 value was greater than 50 nM but equal to or less than 100 nM was indicated as B, and the case where the IC50 value was greater than 100 nM was indicated as C.
On the technique in general: ADP-Glo first removes unused ATP, then detects ADP through luciferase.
Turning to `O=C(Nc1cccc(-c2nc(N3CCOCC3)c3sc(-c4ccncc4)cc3n2)c1)c1ccncc1` [Example 1, N-(3-(4-morpholino-6-(pyridin-4-yl)thieno[3,2-d]pyrimidin-2-yl)phenyl)isonicotinamide], the IC50 was at most 50 nM. Take `O=C(Nc1cccc(-c2nc(N3CCOCC3)c3sc(-c4cccnc4)cc3n2)c1)c1ccncc1` [Example 2, N-(3-(4-morpholino-6-(pyridin-3-yl)thieno[3,2-d]pyrimidin-2-yl)phenyl)isonicotinamide]: the IC50 is at most 50 nM. Take `O=C(Nc1cccc(-c2nc(N3CCOCC3)c3sc(-c4cnco4)cc3n2)c1)c1ccncc1` [Example 3, N-(3-(4-morpholino-6-(oxazol-5-yl)thieno[3,2-d]pyrimidin-2-yl)phenyl)isonicotinamide]: the IC50 is at most 50 nM. With `O=C(Nc1cccc(-c2nc(N3CCOCC3)c3sc(-c4ccncc4)cc3n2)c1)c1cccnc1` [Example 4, N-(3-(4-morpholino-6-(pyridin-4-yl)thieno[3,2-d]pyrimidin-2-yl)phenyl)nicotinamide] the figure was at most 50 nM. With `O=C(Nc1cccc(-c2nc(N3CCOCC3)c3sc(-c4cccnc4)cc3n2)c1)c1cccnc1` [Example 5, N-(3-(4-morpholino-6-(pyridin-3-yl)thieno[3,2-d]pyrimidin-2-yl)phenyl)nicotinamide] the figure was at most 50 nM; with `Nc1ccc(-c2cc3nc(-c4cccc(NC(=O)c5cccnc5)c4)nc(N4CCOCC4)c3s2)cc1` [Example 6, N-(3-(6-(4-aminophenyl)-4-morpholinothieno[3,2-d]pyrimidin-2-yl)phenyl)nicotinamide hydrochloride], at most 50 nM; with `O=C(Nc1cccc(-c2nc(N3CCOCC3)c3sc(-c4cnco4)cc3n2)c1)c1cccnc1` [Example 7, N-(3-(4-morpholino-6-(oxazol-5-yl)thieno[3,2-d]pyrimidin-2-yl)phenyl)nicotinamide], at most 50 nM. Consider `O=C(Nc1cccc(-c2nc(N3CCOCC3)c3sc(-c4ccnc5[nH]ccc45)cc3n2)c1)c1cccnc1` [Example 9, N-(3-(4-morpholino-6-(1H-pyrrolo[2,3-b]pyridin-4-yl)thieno[3,2-d]pyrimidin-2-yl)phenyl)nicotinamide], for which the 50% inhibitory concentration (IC50) is at most 50 nM. For the compound `O=C(Nc1cccc(-c2nc(N3CCOCC3)c3sc(-c4ccnc5[nH]ncc45)cc3n2)c1)c1cccnc1` [Example 10, N-(3-(4-morpholino-6-(1H-pyrazolo[3,4-b]pyridin-4-yl)thieno[3,2-d]pyrimidin-2-yl)phenyl)nicotinamide], the IC50 was in the range of 50 to 100 nM. In the case of `O=C(Nc1cccc(-c2nc(N3CCOCC3)c3sc(-c4cncc5[nH]ccc45)cc3n2)c1)c1cccnc1` [Example 11, N-(3-(4-morpholino-6-(1H-pyrrolo[2,3-c]pyridin-4-yl)thieno[3,2-d]pyrimidin-2-yl)phenyl)nicotinamide], the IC50 was over 100 nM. `O=C(Nc1cccc(-c2nc(N3CCOCC3)c3sc(-c4cccnc4)cc3n2)c1)c1cocn1` [Example 12, N-(3-(4-morpholino-6-(pyridin-3-yl)thieno[3,2-d]pyrimidin-2-yl)phenyl) oxazole-4-carboxamide]: the IC50 is at most 50 nM.

In the case of `O=C(Nc1cccc(-c2nc(N3CCOCC3)c3sc(-c4cccnc4)cc3n2)c1)c1cnco1` [Example 13, N-(3-(4-morpholino-6-(pyridin-3-yl)thieno[3,2-d]pyrimidin-2-yl)phenyl) oxazole-5-carboxamide], the IC50 is at most 50 nM.

With `O=C(Nc1cccc(-c2nc(N3CCOCC3)c3sc(-c4cccnc4)cc3n2)c1)c1ncco1` [Example 14, N-(3-(4-morpholino-6-(pyridin-3-yl)thieno[3,2-d]pyrimidin-2-yl)phenyl) oxazole-2-carboxamide], the IC50 was at most 50 nM. With `Cc1ncc(C(=O)Nc2cccc(-c3nc(N4CCOCC4)c4sc(-c5cccnc5)cc4n3)c2)o1` [Example 15, 2-methyl-N-(3-(4-morpholino-6-(pyridin-3-yl)thieno[3,2-d]pyrimidin-2-yl)phenyl) oxazole-5-carboxamide] the figure was 50 to 100 nM; with `Cc1ncoc1C(=O)Nc1cccc(-c2nc(N3CCOCC3)c3sc(-c4cccnc4)cc3n2)c1` [Example 16, 4-methyl-N-(3-(4-morpholino-6-(pyridin-3-yl)thieno[3,2-d]pyrimidin-2-yl)phenyl) oxazole-5-carboxamide], at most 50 nM; with `Cc1nc(C)c(C(=O)Nc2cccc(-c3nc(N4CCOCC4)c4sc(-c5cccnc5)cc4n3)c2)o1` [Example 17, 2,4-dimethyl-N-(3-(4-morpholino-6-(pyridin-3-yl)thieno[3,2-d]pyrimidin-2-yl)phenyl) oxazole-5-carboxamide], at most 50 nM. Regarding `O=C(Nc1cccc(-c2nc(N3CCOCC3)c3sc(-c4cccnc4)cc3n2)c1)c1cscn1` [Example 18, N-(3-(4-morpholino-6-(pyridin-3-yl)thieno[3,2-d]pyrimidin-2-yl)phenyl) thiazole-4-carboxamide], the IC50 is over 100 nM.

For the compound `O=C(Nc1cccc(-c2nc(N3CCOCC3)c3sc(-c4cccnc4)cc3n2)c1)c1cncs1` [Example 19, N-(3-(4-morpholino-6-(pyridin-3-yl)thieno[3,2-d]pyrimidin-2-yl)phenyl) thiazole-5-carboxamide], the IC50 was at most 50 nM. With `O=C(Nc1cccc(-c2nc(N3CCOCC3)c3sc(-c4cccnc4)cc3n2)c1)c1nccs1` [Example 20, N-(3-(4-morpholino-6-(pyridin-3-yl)thieno[3,2-d]pyrimidin-2-yl)phenyl) thiazole-2-carboxamide] the figure was over 100 nM; with `Cc1ncc(C(=O)Nc2cccc(-c3nc(N4CCOCC4)c4sc(-c5cccnc5)cc4n3)c2)s1` [Example 21, 2-methyl-N-(3-(4-morpholino-6-(pyridin-3-yl)thieno[3,2-d]pyrimidin-2-yl)phenyl) thiazole-5-carboxamide], at most 50 nM; with `Cc1ncsc1C(=O)Nc1cccc(-c2nc(N3CCOCC3)c3sc(-c4cccnc4)cc3n2)c1` [Example 22, 4-methyl-N-(3-(4-morpholino-6-(pyridin-3-yl)thieno[3,2-d]pyrimidin-2-yl)phenyl) thiazole-5-carboxamide], at most 50 nM. Turning to `Cc1nc(C)c(C(=O)Nc2cccc(-c3nc(N4CCOCC4)c4sc(-c5cccnc5)cc4n3)c2)s1` [Example 23, 2,4-dimethyl-N-(3-(4-morpholino-6-(pyridin-3-yl)thieno[3,2-d]pyrimidin-2-yl)phenyl) thiazole-5-carboxamide], the IC50 lay within 50 to 100 nM. Turning to `O=C(Nc1cccc(-c2nc(N3CCOCC3)c3sc(-c4cccnc4)cc3n2)c1)C1CCCNC1` (stereo not shown) [Example 24, N-(3-(4-morpholino-6-(pyridin-3-yl)thieno[3,2-d]pyrimidin-2-yl)phenyl)piperidine-3-carboxamide], the IC50 is at most 50 nM. For `O=C(Nc1cccc(-c2nc(N3CCOCC3)c3sc(-c4cccnc4)cc3n2)c1)C1CCNCC1` [Example 25, N-(3-(4-morpholino-6-(pyridin-3-yl)thieno[3,2-d]pyrimidin-2-yl)phenyl)piperidine-4-carboxamide], the half-inhibitory concentration (IC50) is at most 50 nM.

On to `O=C(Nc1cccc(-c2nc(N3CCOCC3)c3sc(-c4cccnc4)cc3n2)c1)C1CCN(CCO)CC1` [Example 26, 1-(2-hydroxyethyl)-N-(3-(4-morpholino-6-(pyridin-3-yl)thieno[3,2-d]pyrimidin-2-yl)phenyl)piperidine-4-carboxamide], for which the IC50 was in the range of 50 to 100 nM.

For orientation: IC50 means the concentration that gives 50% inhibition.
